Test results published in PubChem BioAssay (NCI).
Values joined by “and” are separate entries in the source; they are usually repeats but may differ in a detail not shown here. Equal entries are not always repeated.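 Grown in 96-well plates, cells were treated for 48 hours with each compound at five concentrations. Insufficient inhibition: endpoint recorded as highest concentration tested. GI50 = concentration required for 50% inhibition of growth. TGI: total growth inhibition.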

What was measured:
Assay in all cases: NCI tumour cell line growth inhibition, 48 h
RPMI-8226 leukemia = tested on: RPMI-8226 leukemia
SK-MEL-5 melanoma = tested on: SK-MEL-5 melanoma
UACC-257 melanoma = tested on: UACC-257 melanoma
IGROV1 ovarian = tested on: IGROV1 ovarian
HOP-92 NSCLC = tested on: HOP-92 NSCLC
KM12 colon = tested on: KM12 colon
HCT-15 colon = tested on: HCT-15 colon
OVCAR-8 ovarian = tested on: OVCAR-8 ovarian
NCI/ADR-RES ovarian = tested on: NCI/ADR-RES ovarian
SNB-75 CNS = tested on: SNB-75 CNS

Question: Which results are given for `CC1NC(=O)C2=C1C(=O)NC(=O)C2` (stereo unspecified)?
Answer: GI50 (RPMI-8226 leukemia): > 100000 nM; TGI (RPMI-8226 leukemia): > 100000 nM; GI50 (SK-MEL-5 melanoma): > 100000 nM; TGI (SK-MEL-5 melanoma): > 100000 nM; GI50 (UACC-257 melanoma): > 100000 nM; TGI (UACC-257 melanoma): > 100000 nM; GI50 (IGROV1 ovarian): > 100000 nM; TGI (IGROV1 ovarian): > 100000 nM; GI50 (HOP-92 NSCLC): > 100000 nM; TGI (HOP-92 NSCLC): > 100000 nM; GI50 (KM12 colon): > 100000 nM; TGI (KM12 colon): > 100000 nM; GI50 (HCT-15 colon): > 100000 nM; TGI (HCT-15 colon): > 100000 nM; GI50 (OVCAR-8 ovarian): > 100000 nM; TGI (OVCAR-8 ovarian): > 100000 nM; GI50 (NCI/ADR-RES ovarian): > 100000 nM; TGI (NCI/ADR-RES ovarian): > 100000 nM

Question: What does the source list for `CN1CCN(C(=O)COc2ccc(/C=C3\CC4C5CC=C6CC(Cl)CCC6(C)C5CCC4(C)C3=O)cc2)CC1` (stereo unspecified)?
Answer: GI50 (RPMI-8226 leukemia): 6900 nM; TGI (RPMI-8226 leukemia): > 100000 nM; GI50 (SNB-75 CNS): 19000 nM; TGI (SNB-75 CNS): 56700 nM; GI50 (IGROV1 ovarian): > 100000 nM; TGI (IGROV1 ovarian): > 100000 nM; GI50 (HOP-92 NSCLC): 10400 nM; TGI (HOP-92 NSCLC): > 100000 nM; GI50 (OVCAR-8 ovarian): > 100000 nM; TGI (OVCAR-8 ovarian): > 100000 nM; GI50 (NCI/ADR-RES ovarian): > 100000 nM; TGI (NCI/ADR-RES ovarian): > 100000 nM

Question: Which GI50 (RPMI-8226 leukemia) does the source give for `CC(=O)c1cc(C(=O)c2ccc3c(c2)Sc2ccccc2N3)n2ccccc12` here?
Answer: 5.85 nM and 3.32 nM

Question: What about the TGI (RPMI-8226 leukemia) of the same molecule?
Answer: 20600 nM

Question: And the GI50 (SK-MEL-5 melanoma)?
Answer: 5.26 nM and 3.32 nM

Question: What about the TGI (SK-MEL-5 melanoma) of the same molecule?
Answer: 818 nM and 742 nM

Question: And the GI50 (UACC-257 melanoma)?
Answer: 3.32 nM

Question: What about the TGI (UACC-257 melanoma) of the same molecule?
Answer: > 33200 nM

Question: And the GI50 (IGROV1 ovarian)?
Answer: 8.97 nM and 25.8 nM

Question: And the TGI (IGROV1 ovarian)?
Answer: > 33200 nM

Question: And the TGI (HOP-92 NSCLC)?
Answer: 14500 nM

Question: And the GI50 (KM12 colon)?
Answer: 4.41 nM

Question: And the GI50 (HCT-15 colon)?
Answer: 4.72 nM and 3.32 nM

Question: And the TGI (HCT-15 colon)?
Answer: > 33200 nM

Question: What about the GI50 (OVCAR-8 ovarian) of the same molecule?
Answer: 7.52 nM and 3.32 nM

Question: And the TGI (OVCAR-8 ovarian)?
Answer: > 33200 nM

Question: What about the GI50 (NCI/ADR-RES ovarian) of the same molecule?
Answer: 3.93 nM and 3.32 nM

Question: And the TGI (NCI/ADR-RES ovarian)?
Answer: 1860 nM

Question: With `CC(C)CCCCCCCCCCCCC(=O)NCC(=O)NC1C(O)C(O)C(Nc2ncnc3nc[nH]c23)OC1C(O)CO` (stereo unspecified) as the molecule, how does the GI50 (SNB-75 CNS) read?
Answer: < 0.01 nM

Question: What about the GI50 (IGROV1 ovarian) of the same molecule?
Answer: 5 nM

Question: And the TGI (IGROV1 ovarian)?
Answer: 7.55 nM and 8.4 nM

Question: And the GI50 (HOP-92 NSCLC)?
Answer: < 0.01 nM

Question: And the TGI (KM12 colon)?
Answer: 47.9 nM and 23.5 nM

Question: And the GI50 (HCT-15 colon)?
Answer: 5.99 nM and 24.9 nM

Question: And the TGI (HCT-15 colon)?
Answer: 896 nM and 1100 nM

Question: And the TGI (NCI/ADR-RES ovarian)?
Answer: 124 nM and 42.2 nM

Question: What does the source list for `COc1ccc(/C=C2/SC(Nc3nc(-c4nc(NC5=NC(=O)/C(=C\c6ccc(OC)cc6)S5)sc4C)c(C)s3)=NC2=O)cc1`?
Answer: GI50 (RPMI-8226 leukemia): 572 nM; TGI (RPMI-8226 leukemia): 3210 nM; GI50 (SK-MEL-5 melanoma): 282 nM; TGI (SK-MEL-5 melanoma): 3930 nM; GI50 (UACC-257 melanoma): 2220 nM; TGI (UACC-257 melanoma): 15400 nM; GI50 (IGROV1 ovarian): 5260 nM; TGI (IGROV1 ovarian): > 50000 nM; GI50 (HOP-92 NSCLC): 6150 nM; TGI (HOP-92 NSCLC): 19100 nM; GI50 (KM12 colon): 196 nM; TGI (KM12 colon): 5770 nM; GI50 (HCT-15 colon): 397 nM; TGI (HCT-15 colon): 7820 nM; GI50 (OVCAR-8 ovarian): 1710 nM; TGI (OVCAR-8 ovarian): 16700 nM; GI50 (NCI/ADR-RES ovarian): 648 nM; TGI (NCI/ADR-RES ovarian): 4390 nM

Question: Which TGI (SK-MEL-5 melanoma) does the source give for `CC1=CC(C)(C)NN1C1=NS(=O)(=O)c2ccccc2N1C` here?
Answer: > 100000 nM

Question: And the TGI (UACC-257 melanoma)?
Answer: > 100000 nM

Question: What about the TGI (IGROV1 ovarian) of the same molecule?
Answer: > 100000 nM

Question: What about the TGI (HOP-92 NSCLC) of the same molecule?
Answer: > 100000 nM

Question: And the TGI (KM12 colon)?
Answer: > 100000 nM

Question: And the TGI (HCT-15 colon)?
Answer: > 100000 nM

Question: And the TGI (OVCAR-8 ovarian)?
Answer: > 100000 nM

Question: What about the TGI (NCI/ADR-RES ovarian) of the same molecule?
Answer: > 100000 nM

Question: `COC(=O)c1cc2c3ccccc3n3c2c(n1)-c1[nH]c2ccccc2c(=O)c1C3` was tested. Which GI50 (SNB-75 CNS) did it give?
Answer: 16000 nM

Question: What about the TGI (SNB-75 CNS) of the same molecule?
Answer: 71300 nM

Question: And the GI50 (SK-MEL-5 melanoma)?
Answer: > 100000 nM

Question: What about the TGI (SK-MEL-5 melanoma) of the same molecule?
Answer: > 100000 nM

Question: And the GI50 (UACC-257 melanoma)?
Answer: > 100000 nM

Question: And the TGI (UACC-257 melanoma)?
Answer: > 100000 nM

Question: What about the GI50 (IGROV1 ovarian) of the same molecule?
Answer: 24600 nM

Question: What about the TGI (IGROV1 ovarian) of the same molecule?
Answer: > 100000 nM

Question: And the GI50 (HOP-92 NSCLC)?
Answer: 11400 nM

Question: What about the TGI (HOP-92 NSCLC) of the same molecule?
Answer: 29300 nM

Question: What about the GI50 (KM12 colon) of the same molecule?
Answer: > 100000 nM

Question: And the TGI (KM12 colon)?
Answer: > 100000 nM

Question: And the GI50 (HCT-15 colon)?
Answer: > 100000 nM

Question: And the TGI (HCT-15 colon)?
Answer: > 100000 nM

Question: What about the GI50 (OVCAR-8 ovarian) of the same molecule?
Answer: > 100000 nM

Question: What about the TGI (OVCAR-8 ovarian) of the same molecule?
Answer: > 100000 nM

Question: And the GI50 (NCI/ADR-RES ovarian)?
Answer: > 100000 nM

Question: And the TGI (NCI/ADR-RES ovarian)?
Answer: > 100000 nM

Question: For `COc1ccc([C@@]23Oc4cc(OC)cc(OC)c4[C@]2(O)[C@H](O)[C@H](C(N)=O)[C@H]3c2ccccc2)cc1`, which GI50 (SNB-75 CNS) is on record?
Answer: < 10 nM

Question: And the TGI (SNB-75 CNS)?
Answer: 119 nM

Question: What about the TGI (SK-MEL-5 melanoma) of the same molecule?
Answer: 32.9 nM and < 13.9 nM

Question: What about the TGI (UACC-257 melanoma) of the same molecule?
Answer: 206 nM and < 30.4 nM

Question: What about the TGI (IGROV1 ovarian) of the same molecule?
Answer: 64.1 nM and < 20.6 nM

Question: And the GI50 (HOP-92 NSCLC)?
Answer: < 15.3 nM

Question: And the TGI (HOP-92 NSCLC)?
Answer: 317 nM and 54.1 nM

Question: And the TGI (KM12 colon)?
Answer: 99.9 nM

Question: And the GI50 (HCT-15 colon)?
Answer: 17.7 nM

Question: And the TGI (HCT-15 colon)?
Answer: 330 nM and 229 nM

Question: And the GI50 (OVCAR-8 ovarian)?
Answer: < 12.2 nM

Question: And the GI50 (NCI/ADR-RES ovarian)?
Answer: 50.4 nM

Question: What about the TGI (NCI/ADR-RES ovarian) of the same molecule?
Answer: 687 nM and 867 nM
